Test [1] relates to A. baumannii (Sensitive). Nature of the test: MIC against A. baumannii (Sensitive). It is filed as cell-based, Acinetobacter baumannii.
For test [2], the system named is E. coli (AMP). Description: MIC against E. coli (AMP). It counts as cell-based, Escherichia coli.
For test [3], the system named is A. baumannii (Resistant). Description: MIC against A. baumannii (Resistant). It counts as cell-based, Acinetobacter baumannii.
Test [4] deals with E. coli SFGH 207. Nature of the test: MIC against E. coli SFGH 207. It is filed as cell-based, Escherichia coli.
Test [5] relates to E. coli (KAN). Nature of the test: microbe, parasite or virus in culture. It is filed as cell-based, Escherichia coli.
In test [6] the test system is E. coli ATCC25922. Nature of the test: MIC against E. coli ATCC25922. It counts as cell-based, Escherichia coli.
In test [7] the test system is P. aeruginosa SFGH 427. Description: MIC against P. aeruginosa SFGH 427. It counts as cell-based, Pseudomonas aeruginosa.
Test [8] has as its system P. aeruginosa SFGH 266. Description: MIC against P. aeruginosa SFGH 266. It is filed as cell-based, Pseudomonas aeruginosa.
For test [9], the system named is MRSA. Description: MIC against MRSA. It is filed as cell-based, Methicillin-resistant Staphylococcus aureus.
The test system of test [10] is drug-resistant GNBs such as Pseudomonas aeruginosa, Escherichia coli, and Acinetobacter baumannii. Description: Growth inhibition of drug-resistant GNBs. It is filed as cell-based. As to conditions: in words; E. coli species, A. baumannii, P. aeruginosa / gram-negative bacteria.
Where [11] appears, read: range stated jointly for MRSA and E. coli (ATCC 25922).

In brackets after ≈: the same amount, converted by molar mass. Like-named read-outs stand apart in the source and are kept apart here.

For `O=[N+]([O-])c1sccc1S(=O)(=O)F` [compound 1, 2-nitrothiophene-3-sulfonyl fluoride], the MICs turned out to be 21 µg/mL in test [1]; 10.6 µg/mL in test [2]; 42 µg/mL in test [3]; 42 µg/mL in [4]; 0.66 µg/mL in test [5] (E. coli (KAN)); 1.32 µg/mL in test [6] (E. coli ATCC25922). Also, the MICs worked out at 84 µg/mL in [7], 42 µg/mL in [8] and 5.28 µg/mL in test [9] (MRSA). For the same compound, the MIC in test [6] (setting [11]) and in [9] (setting [11]) was 1 to 5 µg/mL each time. In [10], the antibacterial activity result was “active”.
Turning to `O=C1CN(/N=C/c2ccc([N+](=O)[O-])o2)C(=O)N1` [nitrofurantoin 7, nitrofurantoin, reference compound], the MIC in test [1] (Acinetobacter baumannii) is above 95 µg/mL; in test [2] (Escherichia coli) it was 6 µg/mL (≈ 25.2 µM); in [3] (Acinetobacter baumannii) it was above 95 µg/mL; in test [4] (Escherichia coli, SFGH207), 6 µg/mL (≈ 25.2 µM); in test [5] (Escherichia coli, read-out: MICs) it was 0.37 µg/mL (≈ 1.55 µM); in [6] (Escherichia coli, ATCC25922, range stated jointly for MRSA and E. coli (ATCC 25922), read-out: MIC), 5 to 12 µg/mL (≈ 21 to 50.4 µM). In addition, the MIC is 3 µg/mL (≈ 12.6 µM) in test [6] (Escherichia coli, E. coli ATCC25922, read-out: MICs); above 95 µg/mL in test [7] (Pseudomonas aeruginosa, SFGH427); above 95 µg/mL in test [8] (Pseudomonas aeruginosa, SFGH266); 5 to 12 µg/mL (≈ 21 to 50.4 µM) in test [9] (Staphylococcus aureus, ATCC 25922 / MRSA, range stated jointly for MRSA and E. coli (ATCC 25922), read-out: MIC); 12 µg/mL (≈ 50.4 µM) in test [9] (Staphylococcus aureus, MRSA, read-out: MICs).

Source of the values: patent publication US11446279B2 (priority 2017, dated 2022).
